One may read the EC50 as the concentration that produces a half-maximal response. As a reminder, the IC50 is the concentration at which inhibition is half-maximal.

Some results are limits rather than exact numbers.

Experiment [1] has as its target DCAF15/RBM39 (Homo sapiens (Human), UniProt Q14498+Q66K64). The experiment in a line: AlphaLISA compound-induced DCAF15-RBM39 ternary complex formation. The experiment is classed as binding. As to conditions: His-tagged DCAF15 complex and biotin-carrying RBM39. As for the experimental part: Example 7: Quantitative Evaluation of Compound-Induced Ternary Complex Formation Using Amplified Luminescent Proximity Homogeneous Assay
Compound-induced DCAF15-RBM39 ternary complex formation was monitored using AlphaLISA® assays (Perkin Elmer, Waltham, MA). Test compounds were first collected in a 384-well microplate (cat. #781280, Grenier Bio-One, Monroe, NC) as 2 mM stocks in 100% dimethyl sulfoxide (DMSO). These stocks were then serially diluted in DMSO by 3-fold into a new plate (cat. #781280, Grenier Bio-One, Monroe, NC) using a Mosquito HTS dispenser (Mosquito® HTS, SPT Labtech, Boston, MA). 0.2 μL of these diluted stocks were then dispensed into a 384-well Optiplate (cat. #6007290, Perkin Elmer, Waltham, MA) in duplicate wells, to assemble the final assay plate consisting of duplicated dose ranges. Separately, a protein mixture consisting of His-tagged DCAF15 complex and biotin-carrying RBM39, each at 408 nM (2.04×), was prepared in 50 mM HEPES, pH 7.5, 100 mM NaCl, 2 mM MgCl2, 0.1% BSA, 2 mM TCEP, 0.05% Tween-20 (dilution buffer). 9.8 μL of this protein mixture was then mixed with the compounds in the assay plate and incubated for one hour at room temperature. Reaction mixtures with no compounds added were included as negative controls, while a His-tagged and biotinylated GST protein was included to track general assay performance. Nickel Chelate AlphaLISA Acceptor beads (cat. #AL108M, Perkin Elmer, MA) and AlphaScreen Streptavidin Donor beads (cat. #6760002, Perkin Elmer, Waltham, MA) were prepared separately in the dilution buffer as 4× stocks (80 ug/ml). The beads were then added to the assay plate sequentially with incubation at room temperature for 1-2 hours after each addition. Signals were recorded using EnVision 2104 Multilabel Plate Reader (Perkin Elmer, Waltham, MA) and titration curves were generated in GraphPad Prism (7.00, GraphPad, La Jolla, CA).
(In general: In Alpha technology, singlet oxygen from a donor bead excites a nearby acceptor bead.)

In experiment [2] the target is DCAF15 (Homo sapiens (Human), UniProt Q66K64). The experiment in a line: HTRF competition assay, binary interaction with DCAF15. The experiment is classed as binding. Particulars: competition with Alexa Fluor 647 tracer. As for the experimental part: Example 8: Measurement of Binary Interaction Between Compounds and DCAF15 Using Homogeneous Time Resolved Fluorescence (HTRF)
Chain of DCAF15 (Q66K64 whole entry): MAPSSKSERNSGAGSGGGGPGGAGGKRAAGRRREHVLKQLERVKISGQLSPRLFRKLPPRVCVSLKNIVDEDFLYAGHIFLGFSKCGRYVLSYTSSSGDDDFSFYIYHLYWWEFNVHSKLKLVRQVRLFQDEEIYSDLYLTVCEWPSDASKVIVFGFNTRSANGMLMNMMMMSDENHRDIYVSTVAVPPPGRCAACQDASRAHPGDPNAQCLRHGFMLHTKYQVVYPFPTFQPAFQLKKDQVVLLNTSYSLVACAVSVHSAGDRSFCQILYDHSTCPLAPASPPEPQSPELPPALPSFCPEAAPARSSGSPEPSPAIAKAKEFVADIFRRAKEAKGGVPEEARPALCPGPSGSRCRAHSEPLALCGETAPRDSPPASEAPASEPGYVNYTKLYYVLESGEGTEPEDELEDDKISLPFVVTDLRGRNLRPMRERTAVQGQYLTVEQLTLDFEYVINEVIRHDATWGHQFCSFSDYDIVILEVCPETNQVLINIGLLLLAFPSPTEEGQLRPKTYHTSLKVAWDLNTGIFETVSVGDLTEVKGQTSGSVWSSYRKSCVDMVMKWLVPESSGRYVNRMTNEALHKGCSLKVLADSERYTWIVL
Chain of DCAF15 (Q16531 whole entry partner): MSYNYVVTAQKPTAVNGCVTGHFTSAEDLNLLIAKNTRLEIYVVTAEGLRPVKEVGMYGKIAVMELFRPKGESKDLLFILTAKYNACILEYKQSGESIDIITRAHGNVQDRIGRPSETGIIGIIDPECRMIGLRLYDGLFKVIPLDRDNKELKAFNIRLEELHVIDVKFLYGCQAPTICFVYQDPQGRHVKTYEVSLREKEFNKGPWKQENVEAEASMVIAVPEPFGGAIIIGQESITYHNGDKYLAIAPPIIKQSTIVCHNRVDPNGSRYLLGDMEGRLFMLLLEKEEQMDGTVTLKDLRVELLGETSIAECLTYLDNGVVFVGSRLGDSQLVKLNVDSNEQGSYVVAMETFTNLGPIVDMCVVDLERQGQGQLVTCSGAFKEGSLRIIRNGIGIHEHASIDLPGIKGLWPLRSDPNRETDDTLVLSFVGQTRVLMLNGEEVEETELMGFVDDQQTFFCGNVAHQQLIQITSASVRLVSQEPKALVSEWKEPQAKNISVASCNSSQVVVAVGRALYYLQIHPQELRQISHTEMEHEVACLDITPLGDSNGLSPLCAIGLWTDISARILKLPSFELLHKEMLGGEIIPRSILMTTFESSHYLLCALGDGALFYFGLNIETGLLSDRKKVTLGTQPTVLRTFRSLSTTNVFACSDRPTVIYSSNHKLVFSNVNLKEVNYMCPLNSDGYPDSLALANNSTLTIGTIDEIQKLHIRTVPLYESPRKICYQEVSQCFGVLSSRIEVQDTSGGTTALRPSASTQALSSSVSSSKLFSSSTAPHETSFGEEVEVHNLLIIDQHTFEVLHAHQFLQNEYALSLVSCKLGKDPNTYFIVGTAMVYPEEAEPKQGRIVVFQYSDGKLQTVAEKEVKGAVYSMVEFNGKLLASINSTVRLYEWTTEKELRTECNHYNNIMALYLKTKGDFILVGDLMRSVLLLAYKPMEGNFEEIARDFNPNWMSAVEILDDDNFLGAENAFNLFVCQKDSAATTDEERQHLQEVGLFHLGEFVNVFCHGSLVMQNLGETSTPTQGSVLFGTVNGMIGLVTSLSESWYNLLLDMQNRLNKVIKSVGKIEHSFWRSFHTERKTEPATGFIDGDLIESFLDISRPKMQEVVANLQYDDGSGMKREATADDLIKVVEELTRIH
DCAF15 interactions with test compounds were monitored using HTRF competition assays (Cisbio, Bedford, MA). Test compounds were first collected in a 384-well microplate (cat. #781280, Grenier Bio-One, Monroe, NC) as 10 mM stocks in 100% dimethyl sulfoxide (DMSO). A second stock plate (cat. #781280, Grenier Bio-One, Monroe, NC) was prepared through 3-fold serial dilution in DMSO of the afore-mentioned stocks using a Mosquito HTS dispenser (mosquito@ HTS, SPT Labtech, Boston, MA). 0.2 μL of these diluted stocks were then dispensed into a 384-well Optiplate (cat. #6007290, Perkin Elmer, Waltham, MA) in duplicate wells, to assemble the assay plate. The tracer molecule containing an Alexa Fluor 647 probe was prepared in 25 mM HEPES pH 7.5, 100 mM NaCl, 0.1 mg/ml BSA, 0.005% Tween 20, 0.5 mM TCEP (dilution buffer) to 612 nM (2.04×). Separately, His-tagged DCAF15 complex was prepared at 32 nM (4×) in the dilution buffer, and mAb Anti-6His-Eu cryptate Gold (cat. #61H12KLA, Cisbio, Bedford, MA) at 4× dilution in the detection buffer (cat. #61DB9RDF, Cisbio, Bedford, MA). These two solutions were mixed and incubated for 15 min at room temperature. 9.8 μL of the tracer solution and 10 μL of the DCAF15/mAb Anti-6His-Eu cryptate Gold mixture were added sequentially to each well in the assay plate. Reaction mixtures with no DCAF15 added were included as positive controls. The final mixture was incubated for an hour at room temperature and spun down briefly before data collection at 615 nm and 666 nm using EnVision 2104 Multilabel Plate Reader (Perkin Elmer, Bedford, MA). Binding was estimated based on ratiometric analysis and titration curves were generated in GraphPad Prism (7.00, GraphPad, La Jolla, CA).

Chain of DCAF15/RBM39 (Q66K64 whole entry, species assumed): as the sequence (Q66K64 whole entry) above
Chain of DCAF15/RBM39 (Q14498 whole entry, species assumed): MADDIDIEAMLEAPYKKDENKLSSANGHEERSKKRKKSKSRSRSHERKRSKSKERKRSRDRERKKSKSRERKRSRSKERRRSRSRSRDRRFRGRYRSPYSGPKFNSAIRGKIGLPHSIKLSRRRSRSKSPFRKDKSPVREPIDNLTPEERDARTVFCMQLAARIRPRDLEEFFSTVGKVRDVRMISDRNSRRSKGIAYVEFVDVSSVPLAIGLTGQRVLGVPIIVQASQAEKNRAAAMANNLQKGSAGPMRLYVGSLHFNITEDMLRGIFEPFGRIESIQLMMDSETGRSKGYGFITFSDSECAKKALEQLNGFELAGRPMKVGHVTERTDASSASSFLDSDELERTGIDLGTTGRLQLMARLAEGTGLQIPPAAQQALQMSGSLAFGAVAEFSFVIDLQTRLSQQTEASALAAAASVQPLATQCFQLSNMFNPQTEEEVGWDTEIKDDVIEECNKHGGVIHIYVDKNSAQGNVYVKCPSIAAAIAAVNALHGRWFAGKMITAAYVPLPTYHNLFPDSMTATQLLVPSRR
Chain of DCAF15/RBM39 (Q16531 whole entry partner, species assumed): as the sequence (Q16531 whole entry partner) above

`Cn1c(=O)c2cc(S(=O)(=O)Nc3ccc(Cl)c4c(Cl)c[nH]c34)ccc2n(C)c1=O` [Compound 43, N-(3,4-dichloro-1H-indol-7-yl)-1,3-dimethyl-2,4-dioxo-1,2,3,4-tetrahydroquinazoline-6-sulfonamide] registered an EC50 in experiment [1] of at most 1 µM.

In the case of `CN1Cc2cc(S(=O)(=O)Nc3ccc(Cl)c4c(Cl)c[nH]c34)ccc2OC1=O` [Compound 41], in experiment [2], the half-inhibitory concentration (IC50) is 1 to 10 µM. For the same molecule, in experiment [1], the EC50 was at most 1 µM.

Turning to `CC(C)(C)OC(=O)N1CCCc2cc(S(=O)(=O)Nc3ccc(Cl)c4c(Cl)c[nH]c34)ccc2C1` [Compound 47], in experiment [2], the IC50 was 1 to 10 µM. The molecule also returned an EC50 in experiment [1] of at most 1 µM.

With `O=C1OCCc2ccc(S(=O)(=O)Nc3ccc(Cl)c4c(Cl)c[nH]c34)cc21` [Compound 31], the IC50 in experiment [2] lay in the range of 1 to 10 µM. The molecule further gave an EC50 in experiment [1] of at most 1 µM.

Turning to `O=S(=O)(Nc1ccc(Cl)c2c(Cl)c[nH]c12)c1ccc2ccccc2c1F` [Compound 25], in experiment [2], the IC50 was in the range of 1 to 10 µM. In experiment [1], this molecule returned an EC50 of at most 1 µM.

In turn, `O=C1COc2ccc(S(=O)(=O)Nc3ccc(Cl)c4c(Cl)c[nH]c34)cc2N1` [Compound 39] showed an EC50 in experiment [1] of 1 to 10 µM.

In experiment [2], `O=C1NS(=O)(=O)c2ccc(S(=O)(=O)Nc3ccc(Cl)c4c(Cl)c[nH]c34)cc21` [Compound 23] showed an IC50 of 1 to 10 µM. This molecule showed an EC50 in experiment [1] of 1 to 10 µM.

Molecule `O=S(=O)(Nc1ccc(Cl)c2c(Cl)c[nH]c12)c1ccc2c(Cl)ccc(Cl)c2c1` [Compound 28] yielded a concentration giving a half-maximal response (EC50) in experiment [1] of 10 to 100 µM.

Molecule `Cn1c(=O)oc2cc(S(=O)(=O)Nc3ccc(Cl)c4c(Cl)c[nH]c34)ccc21` [Compound 22] displayed an IC50 in experiment [2] of 1 to 10 µM. Further, the EC50 in experiment [1] was at most 1 µM.

In experiment [2], `O=S(=O)(Nc1ccc(Cl)c2c(Cl)c[nH]c12)c1cc(Br)c2c(c1)OCCO2` [Compound 38] registered an IC50 of 1 to 10 µM. In addition, the EC50 in experiment [1] fell in the range of 1 to 10 µM.

In the case of `CC1(C)CC(=O)Nc2ccc(S(=O)(=O)Nc3ccc(Cl)c4c(Cl)c[nH]c34)cc21` [Compound 36], the IC50 in experiment [2] lay within 1 to 10 µM. The EC50 in experiment [1] was at most 1 µM.

Regarding `O=C1CCc2ccc(S(=O)(=O)Nc3ccc(Cl)c4c(Cl)c[nH]c34)cc21` [Compound 7], in experiment [2], the IC50 fell in the range of 1 to 10 µM. Further, in experiment [1], the EC50 was at most 1 µM.

In experiment [2], `O=S(=O)(Nc1ccc(Cl)c2c(Cl)c[nH]c12)c1ccc2c(c1)CC[C@@H](C(F)F)O2` [Compound 29] showed an IC50 of 10 to 100 µM. Besides, the EC50 in experiment [1] lay in the range of 1 to 10 µM.

In experiment [2], `O=C1OCc2ccc(S(=O)(=O)Nc3ccc(Cl)c4c(Cl)c[nH]c34)cc21` [Compound 10] had a half-inhibitory concentration (IC50) of 1 to 10 µM. This molecule also came in with an EC50 in experiment [1] of at most 1 µM.

`O=C1COc2cc(S(=O)(=O)Nc3ccc(Cl)c4c(Cl)c[nH]c34)cnc2N1` [Compound 45] yielded an IC50 in experiment [2] of 10 to 100 µM. The EC50 in experiment [1] was at most 1 µM.

As for `O=S(=O)(Nc1ccc(Cl)c2c(Cl)c[nH]c12)c1ccc2c(c1)CCCC2` [Compound 24], in experiment [2], the IC50 is above 100 µM. Besides, the EC50 in experiment [1] was in the range of 1 to 10 µM.

On to `O=C(N1CCc2ccc(S(=O)(=O)Nc3ccc(Cl)c4c(Cl)c[nH]c34)cc2C1)C(F)(F)F` [Compound 33], for which, in experiment [1], the EC50 is at most 1 µM.

On to `CC(=O)N[C@H]1Cc2ccc(S(=O)(=O)Nc3ccc(Cl)c4c(Cl)c[nH]c34)cc2C1` [Compound 8], for which the IC50 in experiment [2] was in the range of 1 to 10 µM. In experiment [1], the EC50 was at most 1 µM.

In experiment [2], `O=S(=O)(Nc1ccc(Cl)c2c(Cl)c[nH]c12)c1ccc2occc2c1` [Compound 11] had an IC50 of 1 to 10 µM. In experiment [1], this molecule gave an EC50 of at most 1 µM.

`CC(=O)N1Cc2ccc(S(=O)(=O)Nc3ccc(Cl)c4c(Cl)c[nH]c34)cc2C1` [Compound 15] showed an IC50 in experiment [2] of 1 to 10 µM. In experiment [1], this molecule displayed an EC50 of 1 to 10 µM.

`O=S(=O)(Nc1ccc(Cl)c2c(Cl)c[nH]c12)c1cc2cc(F)ccc2s1` [Compound 5] showed an EC50 in experiment [1] of 1 to 10 µM.

Consider `O=C1CCOc2ccc(S(=O)(=O)Nc3ccc(Cl)c4c(Cl)c[nH]c34)cc21` [Compound 30], for which the EC50 in experiment [1] lay within 1 to 10 µM.

For `O=S(=O)(Nc1ccc(Cl)c2c(Cl)c[nH]c12)c1ccc2c(c1)OC(F)(F)O2` [Compound 18], the IC50 in experiment [2] fell in the range of 1 to 10 µM. In addition, the EC50 in experiment [1] was at most 1 µM.

`O=C1CCc2cc(S(=O)(=O)Nc3ccc(Cl)c4c(Cl)c[nH]c34)c(F)cc2N1` [Compound 35]: the IC50 in experiment [2] fell in the range of 1 to 10 µM. Also, in experiment [1], the EC50 lay in the range of 1 to 10 µM.

In turn, `Cn1c(=O)n(C)c2cc(S(=O)(=O)Nc3ccc(Cl)c4c(Cl)c[nH]c34)ccc21` [Compound 19] had an IC50 in experiment [2] of 10 to 100 µM. Further, the EC50 in experiment [1] was in the range of 1 to 10 µM.

In experiment [1], `CC(C)(C)OC(=O)N1CCCc2cc(S(=O)(=O)Nc3ccc(Cl)c4c(Cl)c[nH]c34)ccc2C1` [Compound 46] yielded an EC50 of 1 to 10 µM.

Molecule `O=C1NCCOc2ccc(S(=O)(=O)Nc3ccc(Cl)c4c(Cl)c[nH]c34)cc21` [Compound 48] returned a 50% inhibitory concentration (IC50) in experiment [2] of 1 to 10 µM. The same molecule came in with an EC50 in experiment [1] of at most 1 µM.

`O=C1Nc2ccc(S(=O)(=O)Nc3ccc(Cl)c4c(Cl)c[nH]c34)cc2C1=O` [Compound 14] had an IC50 in experiment [2] of 1 to 10 µM. Also, the EC50 in experiment [1] lay within 1 to 10 µM.

In the case of `O=C1COc2cc(S(=O)(=O)Nc3ccc(Cl)c4c(Cl)c[nH]c34)ccc2N1` [Compound 40], the EC50 in experiment [1] was at most 1 µM.

Molecule `O=C1NCCc2ccc(S(=O)(=O)Nc3ccc(Cl)c4c(Cl)c[nH]c34)cc21` [Compound 34] registered an IC50 in experiment [2] of 1 to 10 µM. For the same molecule, the EC50 in experiment [1] is 1 to 10 µM.

For the molecule `CC(=O)N1CCc2cc(S(=O)(=O)Nc3ccc(Cl)c4c(Cl)c[nH]c34)ccc21` [Compound 12], the IC50 in experiment [2] was 1 to 10 µM. This molecule returned an EC50 in experiment [1] of 1 to 10 µM.

In turn, `CC1(C)Cc2cc(S(=O)(=O)Nc3ccc(Cl)c4c(Cl)c[nH]c34)ccc2O1` [Compound 9] gave an IC50 in experiment [2] above 100 µM. This molecule had an EC50 in experiment [1] of 1 to 10 µM.

`O=c1ccc2cc(S(=O)(=O)Nc3ccc(Cl)c4c(Cl)c[nH]c34)ccc2[nH]1` [Compound 37] displayed an IC50 in experiment [2] of 1 to 10 µM. This molecule came in with an EC50 in experiment [1] of at most 1 µM.

With `O=C1CCSc2ccc(S(=O)(=O)Nc3ccc(Cl)c4c(Cl)c[nH]c34)cc2N1` [Compound 49], the IC50 in experiment [2] was in the range of 1 to 10 µM. The EC50 in experiment [1] was at most 1 µM.

In the case of `CN1C(=O)c2ccc(S(=O)(=O)Nc3ccc(Cl)c4c(Cl)c[nH]c34)cc2C1=O` [Compound 16], in experiment [2], the IC50 was in the range of 1 to 10 µM. Also, in experiment [1], the EC50 lay within 1 to 10 µM.

Regarding `O=c1[nH]c2ccc(S(=O)(=O)Nc3ccc(Cl)c4c(Cl)c[nH]c34)cc2o1` [Compound 21], the EC50 in experiment [1] lay in the range of 1 to 10 µM.

Regarding `Cn1cc(S(=O)(=O)Nc2ccc(Cl)c3c(Cl)c[nH]c23)c2ccccc21` [Compound 2], the EC50 in experiment [1] fell in the range of 1 to 10 µM.

Source of the values: patent US20240425486A1, “FUSED BICYCLIC SUBSTITUTED N-(1H-INDOL-7-YL)BENZENESULFONAMIDES AND USES THEREOF” (Triana Biomedicines, Inc., priority 2021, published 2024).
